Data reported in patent US20240299359A1, “PHARMACEUTICAL COMPOSITION FOR ANIMALS CONTAINING 5-HYDROXY-METHYLIMIDAZOLIDINE-2,4-DIONE COMPOUND AS ACTIVE INGREDIENT” (KYONGBO PHARM. CO., LTD., priority 2021, published 2024).
“And” between values parts separate entries of the source, which are not always exact repeats. Identical values can stand only once.

Test system: beagles
Assay: 13-week repeated oral toxicity: hematological test
Type: in vivo, beagle
Experimental: Fasting was conducted the day before administration (blood test date, pre), the 4th week (day 29) after administration, the 8th week (day 57) after administration, and the 13th week (day 92) after administration, and when the remaining feed was present in the feed container 3 hours after feeding on the day of fasting, it was removed.
All subjects were fasted for 16 hours and measurements were then performed pre (before administration), 4 weeks (day 29) after administration, 8 weeks (day 57) after administration, and 13 weeks (day 92) after administration. Within 3 hours after 2 to 3 ml of blood collected from the jugular vein of each subject was injected into a CBC bottle containing EDTA, RBC, HGB, HCT, RBC indices (MCV, MCH, MCHC), and platelet count and WBC differential count were measured using an automatic hematometer.

[1] = G2 200 mg/kg group, female (F4-F6, Mean), before administration (day 0)
[2] = G2 200 mg/kg group, female (F4-F6, Mean), before administration (day 0), mean
[3] = G2 200 mg/kg group, male (M4-M6, Mean), before administration (day 0)
[4] = G2 200 mg/kg group, male (M4-M6, Mean), before administration (day 0), mean
[5] = G2 200 mg/kg, repeated administration for 13 weeks, female, group mean
[6] = G2 200 mg/kg, repeated administration for 13 weeks, female, individual animals
[7] = G2 200 mg/kg, repeated administration for 13 weeks, male, group mean
[8] = G2 200 mg/kg, repeated administration for 13 weeks, male, individual animals
[9] = G3 500 mg/kg group, female (F7-F9, Mean), before administration (day 0)
[10] = G3 500 mg/kg group, female (F7-F9, Mean), before administration (day 0), mean
[11] = G3 500 mg/kg group, male (M7-M9, Mean), before administration (day 0)
[12] = G3 500 mg/kg group, male (M7-M9, Mean), before administration (day 0), mean
[13] = G3 500 mg/kg, repeated administration for 13 weeks, female, group mean

In the case of CN1C(=O)NC(=O)C1O (stereo not drawn) [KBP-001, 5-hydroxy-1-methylimidazolidine-2,4-dione], the HCT [1] is reported as 47.0% and 49.6% and 51.3%, the HGB [1] is reported as 15. g/dl and 16.7 g/dl and 17.5 g/dl and the MCH [1] is reported as 22.5 pg and 22.6 pg and 22.7 pg. For the same compound, the MCHC [1] was 33.8 g/dL and 33.6 g/dL and 34.1 g/dL, the MCV [1] was 66.6 fL and 67.3 fL and 66.7 fL and the Retic [1] was 0.77% and 1.34% and 1.01%. For the same compound, the “WBC Differential Counting Baso” value [1] was 1.0% (2×) and 0.8%, the “WBC Differential Counting Eos” value [1] was 7.3% and 5.5% and 4.5% and the “WBC Differential Counting Lymph” value [1] was 30.0% and 20.55% and 30.2%. For the same compound, the “WBC Differential Counting Mono” value [1] was 5.7% and 6.2% and 6.1%, the “WBC Differential Counting Neut” value [1] was 55.5% and 66.3% and 57.6% and the HCT [2] was 49.30%. The HGB [2] was 16.70 g/dL, the MCH [2] was 22.6 pg and the MCHC [2] was 33.83 g/dL. For the same compound, the MCV [2] was 66.9 fL, the Retic [2] was 1.04% and the “WBC Differential Counting Baso” value [2] was 0.93%. For the same compound, the “WBC Differential Counting Eos” value [2] was 5.77%, the “WBC Differential Counting Lymph” value [2] was 27.00% and the “WBC Differential Counting Mono” value [2] was 6.00%. For the same compound, the “WBC Differential Counting Neut” value [2] was 59.80%, the HCT [3] was 48.1% and 48.8% and 45.2% and the HGB [3] was 16.0 g/dL and 15.2 g/dL. For the same compound, the MCH [3] was 22.2 pg and 21.7 pg and 21 pg, the MCHC [3] was 33.3 g/dL and 32.9 g/dL and 33.7 g/dL and the MCV [3] was 66.8 fL and 66.1 fL and 62.3 fL. The Retic [3] was 1.21% and 1.16% and 1.11%, the “WBC Differential Counting Baso” value [3] was 1.0% and 0.9% and 0.8% and the “WBC Differential Counting Eos” value [3] was 3.5% and 4.7% and 6.4%. The “WBC Differential Counting Lymph” value [3] was 40.5% and 29.4% and 23.2%, the “WBC Differential Counting Mono” value [3] was 4.7% and 8.3% and 6.0% and the “WBC Differential Counting Neut” value [3] was 49.6% and 56.2% and 63.3%. It also gave an HCT [4] of 47.37%, an HGB [4] of 15.73 g/dL and an MCH [4] of 21.6 pg. For the same compound, the MCHC [4] was 33.30 g/dL, the MCV [4] was 65.1 fL and the “WBC Differential Counting Baso” value [4] was 0.90%. The “WBC Differential Counting Eos” value [4] was 4.87%, the “WBC Differential Counting Lymph” value [4] was 31.03% and the “WBC Differential Counting Mono” value [4] was 6.33%. For the same compound, the “WBC Differential Counting Neut” value [4] was 56.37%, the HGB [5] was 15.77 g/dL and the MCH [5] was 22.9 pg. It also gave an MCHC [5] of 33.80 g/dL, an MCV [5] of 67.9 fL and a Retic [5] of 0.41%. For the same compound, the “WBC Differential Counting(%) Baso” value [5] was 0.77%, the “WBC Differential Counting(%) Eos” value [5] was 8.10% and the “WBC Differential Counting(%) Lymph” value [5] was 28.50%. For the same compound, the “WBC Differential Counting(%) Mono” value [5] was 5.30%, the “WBC Differential Counting(%) Neut” value [5] was 56.90% and the HCT [6] was 45.3% and 47.7% and 46.9%. The HGB [6] was 15.3 g/dl and 16.0 g/dl (2×), the MCHC [6] was 33.7 g/dL and 33.6 g/dL and 34.1 g/dL and the MCV [6] was 67.2 fL and 68.8 fL and 67.5 fL. For the same compound, the Retic [6] was 0.25% and 0.42% and 0.55%, the “WBC Differential Counting(%) Baso” value [6] was 0.8% (2×) and 0.7% and the “WBC Differential Counting(%) Eos” value [6] was 8.1% and 7.4% and 8.8%. The “WBC Differential Counting(%) Lymph” value [6] was 25.1% and 33.4% and 27.0%, the “WBC Differential Counting(%) Mono” value [6] was 5.3% and 5.0% and 5.6% and the “WBC Differential Counting(%) Neut” value [6] was 60.2% and 53.1% and 57.4%. It also gave an HCT [7] of 46.43%, an HGB [7] of 15.53 g/dL and an MCH [7] of 22.2 pg. The MCHC [7] was 33.40 g/dL, the MCV [7] was 66.4 fL and the Retic [7] was 0.50%. For the same compound, the “WBC Differential Counting(%) Baso” value [7] was 0.67%, the “WBC Differential Counting(%) Eos” value [7] was 6.23% and the “WBC Differential Counting(%) Lymph” value [7] was 31.10%. For the same compound, the “WBC Differential Counting(%) Mono” value [7] was 6.47%, the “WBC Differential Counting(%) Neut” value [7] was 55.10% and the HCT [8] was 43.8% and 47.0% and 48.5%. For the same compound, the HGB [8] was 14.4 g/dL and 15.8 g/dL and 16.4 g/dL, the MCH [8] was 22 pg and 22.8 pg and 21.8 pg and the MCHC [8] was 32.9 g/dL and 33.5 g/dL and 33.8 g/dL. For the same compound, the MCV [8] was 66.8 fL and 67.9 fL and 64.5 fL, the Retic [8] was 0.45% and 0.59% and 0.46% and the “WBC Differential Counting(%) Baso” value [8] was 0.8% and 0.7% and 0.5%. The “WBC Differential Counting(%) Eos” value [8] was 6.8% and 5.3% and 6.6%, the “WBC Differential Counting(%) Lymph” value [8] was 35.9% and 32.7% and 24.7% and the “WBC Differential Counting(%) Mono” value [8] was 6.1% and 7.5% and 5.8%. The “WBC Differential Counting(%) Neut” value [8] was 50.0% and 53.4% and 61.9%, the HCT [9] was 44.4% and 50.3% and 47.5% and the HGB [9] was 14.6 g/dL and 16.9 g/dL and 15.9 g/dL. The MCH [9] was 22.5 pg and 22.2 pg and 22.1 pg, the MCHC [9] was 33.0 g/dL and 33.5 g/dL and the MCV [9] was 68.3 fL and 66.4 fL and 66.2 fL. For the same compound, the Retic [9] was 0.61% and 0.91% and 1.01%, the “WBC Differential Counting Baso” value [9] was 0.6% and 1.5% and 0.4% and the “WBC Differential Counting Eos” value [9] was 3.4% and 1.1% and 3.7%. For the same compound, the “WBC Differential Counting Lymph” value [9] was 42.0% and 44.2% and 28.3%, the “WBC Differential Counting Mono” value [9] was 4.9% and 3.7% and 5.9% and the HCT [10] was 47.40%. The HGB [10] was 15.80 g/dL, the MCH [10] was 22.3 pg and the MCHC [10] was 33.33 g/dL. For the same compound, the MCV [10] was 67 fL, the Retic [10] was 0.84% and the “WBC Differential Counting Baso” value [10] was 0.83%. The “WBC Differential Counting Eos” value [10] was 2.73%, the “WBC Differential Counting Lymph” value [10] was 38.17% and the “WBC Differential Counting Mono” value [10] was 4.83%. For the same compound, the HCT [11] was 44.8% and 43.0% and 52.1%, the HGB [11] was 15.0 g/dL and 13.8 g/dL and 17.4 g/dL and the MCH [11] was 23 pg and 22.3 pg and 22.9 pg. For the same compound, the MCHC [11] was 33.4 g/dL and 32.1 g/dL, the MCV [11] was 68 fL and 69.4 fL and 68.7 fL and the Retic [11] was 0.60% and 0.46% and 0.84%. For the same compound, the “WBC Differential Counting Baso” value [11] was 0.4% and 0.8% and 1.1%, the “WBC Differential Counting Eos” value [11] was 2.6% and 8.5% and 2.9% and the “WBC Differential Counting Lymph” value [11] was 36.0% and 33.1% and 36.7%. The “WBC Differential Counting Mono” value [11] was 5.9% and 7.8% and 5.8%, the “WBC Differential Counting Neut” value [11] was 54.8% and 49.4% and 53.0% and the HCT [12] was 46.63%. The HGB [12] was 15.40 g/dL, the MCH [12] was 22.7 pg and the MCHC [12] was 32.97 g/dL. For the same compound, the MCV [12] was 69 fL, the Retic [12] was 0.63% and the “WBC Differential Counting Baso” value [12] was 0.77%. The “WBC Differential Counting Eos” value [12] was 4.67%, the “WBC Differential Counting Lymph” value [12] was 35.27% and the “WBC Differential Counting Mono” value [12] was 6.50%. For the same compound, the “WBC Differential Counting Neut” value [12] was 52.40%, the HCT [13] was 48.00% and the HGB [13] was 16.00 g/dL.
